Results taken from US20260026504A1, “COMPOUND […] STRUCTURE, APPLICATION, AND INSECTICIDE” (Anhui Shengfeng Biochemical Co., Ltd, priority 2022, published 2026).
Where two headings read alike, the source gives them in different places.

Test system: diamondback moth (Plutella xylostella) second instar larvae
Experiment: Toxicity to diamondback moth larvae by the leaf-dipping method
Format: in vivo
Conditions: corrected mortality grade, 1 ppm, cabbage leaf dip; for mortality at 1 ppm: Plutella xylostella, in Brassica oleracea, foliar
Experimental: Determining the toxicity activity of part of compounds on diamondback moth (Plutella xylostella) instar larvae by the leafdipping method.
The test agents of the compounds in Table 2 were weighed out accurately with an electronic analytical balance, and the original drug was dissolved in a 10000 ppm solution with dimethyl sulfoxide as the solvent and then diluted with 0.1% of Triton solution to 1 ppm and 0.25 ppm solutions. Taking the cabbage not contacted with the liquid medicine, and cutting the leaves into 6 cm-diameter circular leaves. Soaking the leaves in the prepared liquid medicine for 15 seconds, taking out and drying, and placing the leaves into 6 cm culture dishes, wherein 1 cabbage leaf is placed in each culture dish. The same standard second instar larvae were placed in petri dishes with 10 heads per dish and 4 replicates per concentration for a total of 40 heads. After inoculation, the culture dish is placed in a constant-temperature culture chamber with the temperature of 25±1° C. and the illumination period of 16 (D) to 8 (L) h, and the number of dead and live larvae is investigated after 48 h and 72 h. A blank and a control of compound K1 and compound K2 were also provided.
The mortality is calculated according to the following formula 1, then the corrected mortality is calculated according to the formula 2, and finally the classification is carried out according to the corrected mortality value and the rating standard shown in the table 2, and the specific results are shown in the tables 3 and 4.
mortality %=(number of dead insects/total number of insects)×100% Equation 1;
corrected mortality %=[(treatment-control mortality)/(1-control mortality)]×100% Equation 2.

[1] = 48 h, 48 h, read-out: mortality (1 ppm) 48 h
[2] = 72 h, 72 h, read-out: mortality (1 ppm) 72 h

## Cc1cc(C2=NOC(c3cc(Cl)cc(Cl)c3)(C(F)(F)F)C2)ccc1C(=O)Nc1cn[nH]c1 (stereo not drawn) [Compound 1]
[1]
  mortality at 1 ppm: 50 to 70%
[2]
  mortality at 1 ppm: 70 to 80%

## Cc1cc(C2=NOC(c3cc(Cl)cc(Cl)c3)(C(F)(F)F)C2)ccc1C(=O)Nc1cnn(C)c1 (stereo not drawn) [Compound 2]
[1]
  mortality at 1 ppm: 80 to 90%
[2]
  mortality at 1 ppm: 100%

## CCn1cc(NC(=O)c2ccc(C3=NOC(c4cc(Cl)cc(Cl)c4)(C(F)(F)F)C3)cc2C)cn1 (stereo not drawn) [Compound 3]
[1]
  mortality at 1 ppm: 70 to 80%
[2]
  mortality at 1 ppm: 90 to 100%

## CCCn1cc(NC(=O)c2ccc(C3=NOC(c4cc(Cl)cc(Cl)c4)(C(F)(F)F)C3)cc2C)cn1 (stereo not drawn) [Compound 4]
[1]
  mortality at 1 ppm: 50 to 70%
[2]
  mortality at 1 ppm: 50 to 70%

## Cc1cc(C2=NOC(c3cc(Cl)cc(Cl)c3)(C(F)(F)F)C2)ccc1C(=O)Nc1cnn(C(C)C)c1 (stereo not drawn) [Compound 5]
[1]
  mortality at 1 ppm: 90 to 100%
[2]
  mortality at 1 ppm: 100%

## Cc1cc(C2=NOC(c3cc(Cl)cc(Cl)c3)(C(F)(F)F)C2)ccc1C(=O)Nc1cnn(CC(F)(F)F)c1 (stereo not drawn) [Compound 7]
[2]
  mortality at 1 ppm: 80 to 90%

## Cc1cc(C2=NOC(c3cc(Cl)cc(Cl)c3)(C(F)(F)F)C2)ccc1C(=O)Nc1cnn(CC(F)F)c1 (stereo not drawn) [Compound 8]
[1]
  mortality at 1 ppm: 50 to 70%
[2]
  mortality at 1 ppm: 80 to 90%

## Cc1cc(C2=NOC(c3cc(Cl)cc(Cl)c3)(C(F)(F)F)C2)ccc1C(=O)Nc1cnn(CCF)c1 (stereo not drawn) [Compound 9]
[2]
  mortality at 1 ppm: 80 to 90%

## Cc1cc(C2=NOC(c3cc(Cl)cc(Cl)c3)(C(F)(F)F)C2)ccc1C(=O)Nc1cnn(CCC(F)(F)F)c1 (stereo not drawn) [Compound 10]
[1]
  mortality at 1 ppm: 50 to 70%
[2]
  mortality at 1 ppm: 100%

## Cc1cc(C2=NOC(c3cc(Cl)cc(Cl)c3)(C(F)(F)F)C2)ccc1C(=O)Nc1cnn(CCCF)c1 (stereo not drawn) [Compound 11]
[1]
  mortality at 1 ppm: 50 to 70%
[2]
  mortality at 1 ppm: 100%

## COCn1cc(NC(=O)c2ccc(C3=NOC(c4cc(Cl)cc(Cl)c4)(C(F)(F)F)C3)cc2C)cn1 (stereo not drawn) [Compound 12]
[1]
  mortality at 1 ppm: 50 to 70%
[2]
  mortality at 1 ppm: 50 to 70%

## CCC(C)n1cc(NC(=O)c2ccc(C3=NOC(c4cc(Cl)cc(Cl)c4)(C(F)(F)F)C3)cc2C)cn1 (stereo not drawn) [Compound 16]
[2]
  mortality at 1 ppm: 70 to 80%

## Cc1cc(C2=NOC(c3cc(Cl)cc(Cl)c3)(C(F)(F)F)C2)ccc1C(=O)Nc1cnn(C2CC2)c1 (stereo not drawn) [Compound 23]
[1]
  mortality at 1 ppm: 100%
[2]
  mortality at 1 ppm: 100%

## Cc1cc(C2=NOC(c3cc(Cl)cc(Cl)c3)(C(F)(F)F)C2)ccc1C(=O)Nc1cnn(C2CCC2)c1 (stereo not drawn) [Compound 24]
[2]
  mortality at 1 ppm: 50 to 70%

## C=CCn1cc(NC(=O)c2ccc(C3=NOC(c4cc(Cl)cc(Cl)c4)(C(F)(F)F)C3)cc2C)cn1 (stereo not drawn) [Compound 27]
[1]
  mortality at 1 ppm: 50 to 70%
[2]
  mortality at 1 ppm: 70 to 80%

## C#CCn1cc(NC(=O)c2ccc(C3=NOC(c4cc(Cl)cc(Cl)c4)(C(F)(F)F)C3)cc2C)cn1 (stereo not drawn) [Compound 28]
[1]
  mortality at 1 ppm: 80 to 90%
[2]
  mortality at 1 ppm: 100%

## Cc1cc(C2=NOC(c3cc(Cl)cc(Cl)c3)(C(F)(F)F)C2)ccc1C(=O)Nc1cnn(CC2CC2)c1 (stereo not drawn) [Compound 30]
[2]
  mortality at 1 ppm: 50 to 70%

## Cc1cc(C2=NOC(c3cc(Cl)cc(Cl)c3)(C(F)(F)F)C2)ccc1C(=O)Nc1cnn(CC2CCCCC2)c1 (stereo not drawn) [Compound 33]
[2]
  mortality at 1 ppm: 50 to 70%

## COC(Cn1cc(NC(=O)c2ccc(C3=NOC(c4cc(Cl)cc(Cl)c4)(C(F)(F)F)C3)cc2C)cn1)OC (stereo not drawn) [Compound 36]
[2]
  mortality at 1 ppm: 50 to 70%

## Cc1cc(C2=NOC(c3cc(Cl)cc(Cl)c3)(C(F)(F)F)C2)ccc1C(=O)Nc1cnn(C2CCOC2)c1 (stereo not drawn) [Compound 39]
[2]
  mortality at 1 ppm: 50 to 70%

## Cc1cc(C2=NOC(c3cc(Cl)cc(Cl)c3)(C(F)(F)F)C2)ccc1C(=O)Nc1cnn(C2CCOCC2)c1 (stereo not drawn) [Compound 40]
[1]
  mortality at 1 ppm: 50 to 70%
[2]
  mortality at 1 ppm: 50 to 70%

## Cc1cc(C2=NOC(c3cc(Cl)cc(Cl)c3)(C(F)(F)F)C2)ccc1C(=O)Nc1cnn(-c2ccccc2F)c1 (stereo not drawn) [Compound 42]
[2]
  mortality at 1 ppm: 50 to 70%

## Cc1cc(C2=NOC(c3cc(Cl)cc(Cl)c3)(C(F)(F)F)C2)ccc1C(=O)Nc1cnn(-c2ccccc2Br)c1 (stereo not drawn) [Compound 44]
[2]
  mortality at 1 ppm: 50 to 70%

## Cc1cc(C2=NOC(c3cc(Cl)cc(Cl)c3)(C(F)(F)F)C2)ccc1C(=O)Nc1cnn(-c2cccc(F)c2)c1 (stereo not drawn) [Compound 47]
[2]
  mortality at 1 ppm: 50 to 70%

## COc1cccc(-n2cc(NC(=O)c3ccc(C4=NOC(c5cc(Cl)cc(Cl)c5)(C(F)(F)F)C4)cc3C)cn2)c1 (stereo not drawn) [Compound 51]
[2]
  mortality at 1 ppm: 50 to 70%

## Cc1cc(C2=NOC(c3cc(Cl)cc(Cl)c3)(C(F)(F)F)C2)ccc1C(=O)Nc1cnn(-c2ccc(F)cc2)c1 (stereo not drawn) [Compound 52]
[2]
  mortality at 1 ppm: 50 to 70%

## CC(=O)n1cc(NC(=O)c2ccc(C3=NOC(c4cc(Cl)cc(Cl)c4)(C(F)(F)F)C3)cc2C)cn1 (stereo not drawn) [Compound 58]
[2]
  mortality at 1 ppm: 50 to 70%

## CCC(=O)n1cc(NC(=O)c2ccc(C3=NOC(c4cc(Cl)cc(Cl)c4)(C(F)(F)F)C3)cc2C)cn1 (stereo not drawn) [Compound 59]
[2]
  mortality at 1 ppm: 50 to 70%

## CCCC(=O)n1cc(NC(=O)c2ccc(C3=NOC(c4cc(Cl)cc(Cl)c4)(C(F)(F)F)C3)cc2C)cn1 (stereo not drawn) [Compound 60]
[2]
  mortality at 1 ppm: 50 to 70%

## Cc1cc(C2=NOC(c3cc(Cl)cc(Cl)c3)(C(F)(F)F)C2)ccc1C(=O)Nc1cnn(C(=O)C2CCC2)c1 (stereo not drawn) [Compound 64]
[2]
  mortality at 1 ppm: 50 to 70%

## Cc1cc(C2=NOC(c3cc(Cl)cc(Cl)c3)(C(F)(F)F)C2)ccc1C(=O)Nc1cnn(C(=O)N(C)C)c1 (stereo not drawn) [Compound 67]
[2]
  mortality at 1 ppm: 90 to 100%

## CCN(CC)C(=O)n1cc(NC(=O)c2ccc(C3=NOC(c4cc(Cl)cc(Cl)c4)(C(F)(F)F)C3)cc2C)cn1 (stereo not drawn) [Compound 68]
[2]
  mortality at 1 ppm: 50 to 70%

## Cc1cc(C2=NOC(c3cc(Cl)cc(Cl)c3)(C(F)(F)F)C2)ccc1C(=O)Nc1cnn(S(C)(=O)=O)c1 (stereo not drawn) [Compound 69]
[2]
  mortality at 1 ppm: 50 to 70%

## CCCS(=O)(=O)n1cc(NC(=O)c2ccc(C3=NOC(c4cc(Cl)cc(Cl)c4)(C(F)(F)F)C3)cc2C)cn1 (stereo not drawn) [Compound 71]
[2]
  mortality at 1 ppm: 70 to 80%

## Cc1cc(C2=NOC(c3cc(Cl)cc(Cl)c3)(C(F)(F)F)C2)ccc1C(=O)Nc1cnn(S(=O)(=O)C(C)C)c1 (stereo not drawn) [Compound 72]
[2]
  mortality at 1 ppm: 50 to 70%

## Cc1cc(C2=NOC(c3cc(Cl)cc(Cl)c3)(C(F)(F)F)C2)ccc1C(=O)Nc1cnn(S(=O)(=O)c2ccccc2)c1 (stereo not drawn) [Compound 73]
[2]
  mortality at 1 ppm: 50 to 70%

## Cc1cc(C2=NOC(c3cc(Cl)cc(Cl)c3)(C(F)(F)F)C2)ccc1C(=O)Nc1cnn(S(=O)(=O)C2CCCCC2)c1 (stereo not drawn) [Compound 75]
[1]
  mortality at 1 ppm: 90 to 100%
[2]
  mortality at 1 ppm: 90 to 100%

## CCn1nc(C)c(NC(=O)c2ccc(C3=NOC(c4cc(Cl)cc(Cl)c4)(C(F)(F)F)C3)cc2C)c1C (stereo not drawn) [Compound 97]
[2]
  mortality at 1 ppm: 80 to 90%

## CCCn1nc(C)c(NC(=O)c2ccc(C3=NOC(c4cc(Cl)cc(Cl)c4)(C(F)(F)F)C3)cc2C)c1C (stereo not drawn) [Compound 98]
[2]
  mortality at 1 ppm: 50 to 70%

## CCC(CC)n1nc(C)c(NC(=O)c2ccc(C3=NOC(c4cc(Cl)cc(Cl)c4)(C(F)(F)F)C3)cc2C)c1C (stereo not drawn) [Compound 102]
[2]
  mortality at 1 ppm: 50 to 70%

## Cc1cc(C2=NOC(c3cc(Cl)cc(Cl)c3)(C(F)(F)F)C2)ccc1C(=O)Nc1c(C)nn(Cc2ccccc2)c1C (stereo not drawn) [Compound 104]
[2]
  mortality at 1 ppm: 50 to 70%

## Cc1cc(C2=NOC(c3cc(Cl)c(F)c(Cl)c3)(C(F)(F)F)C2)ccc1C(=O)Nc1cn[nH]c1 (stereo not drawn) [Compound 123]
[1]
  mortality at 1 ppm: 90 to 100%
[2]
  mortality at 1 ppm: 100%

## Cc1cc(C2=NOC(c3cc(Cl)c(F)c(Cl)c3)(C(F)(F)F)C2)ccc1C(=O)Nc1cnn(C)c1 (stereo not drawn) [Compound 124]
[1]
  mortality at 1 ppm: 80 to 90%
[2]
  mortality at 1 ppm: 100%

## CCn1cc(NC(=O)c2ccc(C3=NOC(c4cc(Cl)c(F)c(Cl)c4)(C(F)(F)F)C3)cc2C)cn1 (stereo not drawn) [Compound 125]
[1]
  mortality at 1 ppm: 100%
[2]
  mortality at 1 ppm: 100%

## Cc1cc(C2=NOC(c3cc(Cl)c(F)c(Cl)c3)(C(F)(F)F)C2)ccc1C(=O)Nc1cnn(C2CC2)c1 (stereo not drawn) [Compound 129]
[1]
  mortality at 1 ppm: 100%
[2]
  mortality at 1 ppm: 100%

## Cc1cc(C2=NOC(c3cc(Cl)c(F)c(Cl)c3)(C(F)(F)F)C2)ccc1C(=O)Nc1cnn(C2CCC2)c1 (stereo not drawn) [Compound 130]
[1]
  mortality at 1 ppm: 90 to 100%
[2]
  mortality at 1 ppm: 100%

## Cc1cc(C2=NOC(c3cc(Cl)c(F)c(Cl)c3)(C(F)(F)F)C2)ccc1C(=O)Nc1cnn(C2CCCC2)c1 (stereo not drawn) [Compound 131]
[1]
  mortality at 1 ppm: 80 to 90%
[2]
  mortality at 1 ppm: 100%

## Cc1cc(C2=NOC(c3cc(Cl)c(F)c(Cl)c3)(C(F)(F)F)C2)ccc1C(=O)Nc1cnn(C2CCCCC2)c1 (stereo not drawn) [Compound 132]
[1]
  mortality at 1 ppm: 50 to 70%
[2]
  mortality at 1 ppm: 100%

## Cc1cc(C2=NOC(c3cc(Cl)c(F)c(Cl)c3)(C(F)(F)F)C2)ccc1C(=O)Nc1cnn(CC2CC2)c1 (stereo not drawn) [Compound 133]
[1]
  mortality at 1 ppm: 80 to 90%
[2]
  mortality at 1 ppm: 100%

## Cc1cc(C2=NOC(c3cc(Cl)c(F)c(Cl)c3)(C(F)(F)F)C2)ccc1C(=O)Nc1cnn(CC2CCC2)c1 (stereo not drawn) [Compound 134]
[2]
  mortality at 1 ppm: 70 to 80%

## Cc1cc(C2=NOC(c3cc(Cl)c(F)c(Cl)c3)(C(F)(F)F)C2)ccc1C(=O)Nc1cnn(C2CCCCC2)c1 (stereo not drawn) [Compound 137]
72 h
  mortality (1 ppm) 72 h: C (80% to less than 90%)

## Cc1cc(C2=NOC(c3cc(Cl)c(F)c(Cl)c3)(C(F)(F)F)C2)ccc1C(=O)Nc1cnn(Cc2ccccc2)c1 (stereo not drawn) [Compound 139]
[2]
  mortality at 1 ppm: 50 to 70%

## CC(=O)n1cc(NC(=O)c2ccc(C3=NOC(c4cc(Cl)c(F)c(Cl)c4)(C(F)(F)F)C3)cc2C)cn1 (stereo not drawn) [Compound 140]
[2]
  mortality at 1 ppm: 50 to 70%
